What was measured:
[1] = system: L. reuteri DSM 17938; assay: Survival of L. reuteri in colon (qPCR), short SHIME model; parameters: species or system Lactobacillus reuteri; details: for survival of L. reuteri in the colon in presence or absence of GOS: 48 h incubation, qPCR, FIG. 4A
Excerpt: (§1) In this experiment, a simplified simulation of the continuous Simulator of the Human Microbial Ecosystem (SHIME®) was used. This SHIME® model has been extensively used for more than 20 years for both scientific and industrial projects and has been validated with in vivo parameters (see for example Van den Abbeele et al., Arabinoxylo-Oligosaccharides and Inulin Impact Inter-Individual Variation on Microbial Metabolism and Composition, Which Immunomodulates Human cells, J. Agric. Food chem. 2018, 66(5): 1121-1130).
(§2) For the current set of experiments a two-stage batch system mimicking the upper gastro-intestinal tract (Upper GIT, stomach and small intestine) and colonic conditions were used as simplified SHIME® system (FIG. 1). Cow milk-based toddler beverage, also called Growing-up-milk, containing minerals adapted for the age group was used in these studies.
Fresh fecal material was collected from an infant donor. Fecal suspension was prepared and mixed with a protectant. At the start of the short-term colonic incubation, the test ingredients (L. reuteri strain and Streptococcus thermophilus strain) were added to sugar-depleted nutritional medium containing basal nutrients present in the colon (e.g., host-derived glycans such as mucin).
L. reuteri strain and S. thermophilus strain were inoculated at 1×10^9 CFU/reactor. […]
(§3) L. reuteri strain and pre-conditioned L. reuteri strain were inoculated at 1x10^9 CFU/reactor. L. reuteri were quantified by plating on MRS medium, while S. thermophilus was plated on M17 medium supplemented with lactose. […] Quantities of L. reuteri and S. thermophilus powders were then calculated to target 1x10^9 CFU/colonic reactor. […]
(§4) Quantitative polymerase chain reaction (qPCR) was performed to selectively enumerate Lactobacilli and Streptococci. qPCR was performed at 0 h and after 48 h of colonic incubation.

[2] = system: S. thermophilus NCC2496; assay: Survival of S. thermophilus in colon (qPCR), short SHIME model; parameters: species or system Streptococcus thermophilus; details: 48 h incubation, FIG. 4A
Excerpt: as §1
as §2, with “studies. […]” for “studies.”
as §3, §4

Row | Substance | survival of L. reuteri in the colon in presence or absence of GOS [1] | survival of L. reuteri in the colon in presence or absence of GOS ([1]; listed as L. reuteri DSM17938) | survival of L. reuteri in the colon in presence of GOS, pre-conditioned vs non-pre-conditioned ([1]; cell counts at 48 h, FIG. 4B) | survival of S. thermophilus in the colon in presence or absence of GOS [2] | survival of S. thermophilus in the colon in presence or absence of GOS ([2]; listed as Streptococcus thermophilus NCC2496)
1 | Lactobacillus reuteri DSM 17938 [L. reuteri] | enhanced by the presence of GOS | positive effect of GOS | survives well | – | –
2 | Streptococcus thermophilus NCC2496 [S. thermophilus] | – | – | – | impaired by the presence of GOS | negative effect of GOS
